In paper PMC10602061 (Research Square, 2023):
Ends that are not written are not given here.

Legend:
4T1 cells [1] = experiment: Transmission electron microscopy of cell morphology; assay type: cell-based, murine; conditions: 100 μM CKS1, 30 minutes
Method: Samples were fixed in 2.5% glutaraldehyde, 3 mM MgCl2 in 0.1 M sodium cacodylate buffer, pH 7.2 overnight at 4°C. After buffer rinse, samples were postfixed in 2% osmium tetroxide in 0.1 M sodium cacodylate for at least one hour (no more than two) on ice in the dark. After osmium, samples were rinsed in 0.1 M Maleate buffer (pH 6.2), followed by uranyl acetate in 0.1 M Maleate (0.22 μm filtered, 1 h, dark), dehydrated in a graded series of ethanol and embedded in Epon (PolySci) resin. Samples were polymerized at 60°C overnight. Thin sections, 60 to 90 nm, were cut with a diamond knife on a Leica UCT ultramicrotome and picked up with 2×1 mm Formvar copper slot grids. Grids were stained with 2% uranyl acetate (aq.) followed by lead citrate and observed with a Hitachi 7600 TEM at 80 kV. Images were captured with an AMT CCD XR80 (8-megapixel camera - side mount AMT XR80 – high-resolution highspeed camera).

[2] = tested on: triple-negative breast cancer (TNBC); conditions: triple-negative breast cancer (TNBC) model; cited from earlier work
Text: (§1) Chemokinostatin-1 (CKS1) is a 24-mer peptide originally discovered as an anti-angiogenic peptide. Karagiannis and Popel developed a computational method to identify anti-angiogenic sequences contained in the human proteome and discovered common sequences conserved within protein domains contained in angiogenesis-related proteins. CKS1 is derived from a sequence shared in the CXC chemokine family.

glioma = glioma model; cited from earlier work
Text: as §1

caspase-3 in 4T1 cells = experiment: Caspase-3 activity assay in cell lysate; assay type: cell-based, murine; conditions: 100 μM CKS1, indicated time, fluorescence divided by protein concentration, N = 3
Method: 1.0 × 10^4 4T1 cells were seeded in 96-well plates and incubated overnight. After CKS1 treatment, the cells were lysed using lysis buffer (Cell Signaling Technology, #7018). The activity of caspase-3 in the cell lysate was quantified using the caspase-3 activity assay kit (Cell Signaling Technology, #5723) following the manufacturer’s instructions. Briefly, the cell lysate was incubated with a substrate of caspase-3 which was designed to emit fluorescence when cleaved. After incubation, the fluorescence was measured using a plate reader. The protein concentration of the cell lysate was quantified using the DC protein assay kit (Bio-Rad, Hercules, CA). The caspase-3 activity was divided by the protein concentration to obtain the caspase-3 activity per μg/mL protein in the cell lysate.

[3] = tested on: NIH/3T3 normal fibroblasts; experiment: LDH release (CyQUANT LDH cytotoxicity assay); assay type: cell-based, murine; conditions: NIH/3T3 fibroblasts, indicated concentration of CKS1, 6 hours; N = 3
Method: (§5) 1.0 × 10^4 cells were seeded in a 96-well plate and incubated overnight. The cells were washed once, and the medium was replaced with serum free media. Cells were treated with CKS1 for the indicated time and concentration. CyQUANT LDH cytotoxicity assay (Thermo Fisher Scientific) was used following the manufacturer’s instructions to measure the release of LDH. LDH release was normalized to the amount of LDH released from cells treated with lysis buffer.

[4] = tested on: human umbilical vein endothelial cells (HUVECs); experiment: LDH release (CyQUANT LDH cytotoxicity assay); assay type: cell-based; conditions: indicated concentration of CKS1, 6 hours, N = 3
Method: as §5

4T1 cells [5] = experiment: xCELLigence real-time cell viability assay (RTCA); assay type: cell-based, murine; conditions: serum free media, representative of N = 3
Method: 3,000 cells were seeded in the wells of an xCELLigence RTCA E-plate 16 (Agilent, Santa Clara, CA). After the cells adhered to the plate, the media was replaced with serum free media, and the cells were treated with CKS1 at the indicated concentrations. The viability of the cells was monitored using the xCELLigence RTCA analyzer (Agilent).

4T1 cells [6] = experiment: JC-1 mitochondrial membrane potential imaging; assay type: cell-based, murine; conditions: 100 μM CKS1, live cell imaging, 25 cells, representative of N = 3
Method: (§2) Fluorescence labeling of cells was performed by seeding 5.0 × 10^4 4T1 cells in a 35mm dish on a collagen-coated No. 1.5 coverslip with a 14 mm glass diameter (MatTek, Ashland, MA). After overnight incubation, the cells were washed once with serum free media and replaced with fresh serum free media. For cell membrane labeling, NR12S (R&D Systems, Minneapolis, MN, #7509) was added at a final concentration of 0.3 μM and incubated for 30 minutes. For cell cytosol labeling, Calcein-AM (Thermo Fisher Scientific, C1430) was added at a final concentration of 5 μg/mL and incubated for 10 minutes. For mitochondrial membrane labeling, JC-1 (Thermo Fisher Scientific, T3168) was added at a final concentration of 10 μg/mL and incubated for 10 minutes. For nuclear staining, Hoechst 33342 (Cell Signaling Technology, #4082) was added at a final concentration of 5 μg/mL and incubated for 10 minutes.
(§3) Cells were imaged on either a Zeiss LSM 700 or a 3i spinning disk confocal microscope. Samples were imaged with optimized microscope settings. Z-stack, time-lapse, or multi-channel acquisition settings were adjusted based on the experimental requirements. Images were then acquired with the appropriate excitation and emission wavelengths for each fluorophore.
(§4) Image analysis was performed using Fiji software. For each image/video, the brightness and the contrast were adjusted. […]

4T1 cells [7] = experiment: Fluorescence live cell imaging, calcein-AM stained cytosol; assay type: cell-based, murine; conditions: 100 μM CKS1, live cell imaging
Method: as §2, §3, §4

NGRKACLNPASPIVKKIIEKMLNS-NH2 [CKS1, Chemokinostatin-1]
Cell membrane integrity by electron microscopy (4T1 cells [1]): ruptured
Nuclear membrane integrity by electron microscopy (4T1 cells [1]): not ruptured
Suppression of tumor growth [2]: efficacy in suppressing tumor growth was demonstrated
Suppression of tumor growth (glioma): efficacy in suppressing tumor growth was demonstrated
Activity of caspase-3 (caspase-3 in 4T1 cells): increased
Cell death (release of LDH) in non-cancerous cells [3]: did not induce cell death
Cell death (release of LDH) in non-cancerous cells [4]: did not induce cell death
Time after treatment at which cell death (reduction in cell index) was observed (4T1 cells [5]; 4T1 cells, 3,000 cells per well): ≤ 1 h
Dose dependence of cell death (reduction in cell index) (4T1 cells [5]; 4T1 cells): dose-dependent
Mitochondrial membrane potential (JC-1 green/red fluorescence) (4T1 cells [6]): rapidly diminishes the mitochondrial membrane potential
Events after treatment in calcein-AM stained cells (4T1 cells [7]): influx of the surrounding media into the cells
